# Experimental data: patent publication US9695155B2, “Herbicidal substituted pyrimidinyloxy benzene compounds” (E. I. DU PONT DE NEMOURS AND COMPANY, priority 2013, dated 2017)
# Experiments:
# [1] = tested on: ducksalad; test: Test C flooded paddy test; type: in vivo, Heteranthera limosa; details: Flood, scale 0 to 100 (0 no effect, 100 complete control), 13 to 15 days
# Method in brief: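 Visual injury ratings against untreated controls, taken 13 to 15 days after compound was added to paddy water standing 3 cm above the soil.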
# [2] = tested on: arrowleaf sida; test: Test E postemergence; type: in vivo, Sida rhombifolia; details: Sida rhombifolia, post-emergence, read-out: Plant response rating, Arrowleaf Sida
# From the text: (§1) Seeds of plant species selected from corn (Zea mays), soybean (Glycine max), velvetleaf (Abutilon theophrasti), lambsquarters (Chenopodium album), wild poinsettia (Euphorbia heterophylla), palmer pigweed (Amaranthus palmeri), waterhemp (common waterhemp, Amaranthus rudis), surinam grass (Brachiaria decumbens), large (Lg) crabgrass (Digitaria sanguinalis), Brazilian crabgrass (Digitaria horizontalis), fall panicum (Panicum dichotomiflorum), giant foxtail (Setaria faberii), green foxtail (Setaria viridis), goosegrass (Eleusine indica), johnsongrass (Sorghum halepense), ragweed (common ragweed, Ambrosia elatior), barnyardgrass (Echinochloa crus-galli), sandbur (southern sandbur, Cenchrus echinatus), arrowleaf sida (Sida rhombifolia), Italian ryegrass (Lolium multiflorum), dayflower (Virginia (VA) dayflower, Commelina virginica), field bindweed (Convolvulus arvensis), morningglory (Ipomoea coccinea), nightshade (eastern black nightshade, Solanum ptycanthum), kochia (Kochia scoparia), yellow nutsedge (Cyperus esculentus), cocklebur (common cocklebur, Xanthium strumarium), smartweed (ladysthumb smartweed, and hairy beggarticks (Bidens pilosa), were planted into a silt loam soil and treated preemergence with test chemicals formulated in a non-phytotoxic solvent mixture which included a surfactant.
# (§2) At the same time, plants from these crop and weed species and also horseweed (Canada horseweed, Conyza canadensis), waterhemp_RES1, (ALS & Triazine resistant common waterhemp, Amaranthus rudis), and waterhemp_RES2, (ALS & HPPD resistant common waterhemp, Amaranthus rudis) were planted in pots containing Redi-Earth® planting medium (Scotts Company, 14111 Scottslawn Road, Marysville, Ohio 43041) comprising spaghnum peat moss, vermiculite, wetting agent and starter nutrients were treated with postemergence applications of test chemicals formulated in the same manner. Plants ranged in height from 2 to 18 cm for postemergence treatments (1- to 4-leaf stage). Treated plants and controls were maintained in a greenhouse for 14 to 21 days, after which time all species were compared to controls and visually evaluated. Plant response ratings, summarized in Table E, are based on a scale of 0 to 100 where 0 is no effect and 100 is complete control. A dash (-) response means no test result.
# [3] = tested on: waterhemp; test: Test E postemergence; type: in vivo, Amaranthus rudis; details: Amaranthus tuberculatus, post-emergence, read-out: Plant response rating, Waterhemp
# From the text: as §1, §2
# [4] = tested on: waterhemp_RES2 (ALS & HPPD resistant common waterhemp); test: Test E postemergence; type: in vivo, Amaranthus rudis; details: Amaranthus tuberculatus, post-emergence, read-out: Plant response rating, Waterhemp_RES2
# From the text: as §1, §2
# [5] = tested on: dayflower; test: Test E postemergence; type: in vivo, Commelina virginica; details: Commelina virginica, post-emergence, read-out: Plant response rating, Dayflower, VA
# From the text: as §1, §2
# [6] = tested on: fall panicum; test: Test E postemergence; type: in vivo, Panicum dichotomiflorum; details: Panicum dichotomiflorum, post-emergence, read-out: Plant response rating, Panicum, Fall
# From the text: as §1, §2
# [7] = tested on: soybean; test: Test E postemergence; type: in vivo, Glycine max; details: Glycine max, post-emergence
# From the text: as §1, §2
# [8] = tested on: sandbur; test: Test E postemergence; type: in vivo, Cenchrus echinatus; details: Cenchrus echinatus, post-emergence, read-out: Plant response rating, Sandbur
# From the text: as §1, §2
# [9] = tested on: hairy beggarticks; test: Test E postemergence; type: in vivo, Bidens pilosa; details: Bidens pilosa, post-emergence, read-out: Plant response rating, Beggarticks
# From the text: as §1, §2
# [10] = Postemergence, 31 g ai/ha, scale 0 to 100
# [11] = Postemergence, 62 g ai/ha, scale 0 to 100
# [12] = Postemergence, 125 g ai/ha, scale 0 to 100
# [13] = Postemergence, 250 g ai/ha, scale 0 to 100
# [14] = postemergence, 16 g ai/ha, scale 0 to 100, 0 no effect, 100 complete control
structure (smiles),measurement,setting,value
"Fc1cccc(Oc2ncc(Cl)cn2)c1-n1cc(C(F)F)nn1 [Compound 141, 5-chloro-2-[2-[4-(difluoromethyl)-1H-1,2,3-triazol-1-yl]-3-fluorophenoxy]pyrimidine]","Plant response rating, Ducksalad",[1]; 31 g ai/ha,65
same,"Plant response rating, Ducksalad",[1]; 62 g ai/ha,80
same,"Plant response rating, Ducksalad",[1]; 125 g ai/ha,95
same,"Plant response rating, Ducksalad",[1]; 250 g ai/ha,100
"Clc1cnn(-c2ccccc2Oc2ncc(Br)cn2)c1 [Compound 5, 5-bromo-2-[2-(4-chloro-1H-pyrazol-1-yl)phenoxy]pyrimidine]",pest or weed control at 31 g/ha,[2]; [10],60%
same,pest or weed control at 62 g/ha,[2]; [11],70%
same,pest or weed control at 125 g/ha,[2]; [12],80%
same,pest or weed control at 250 g/ha,[2]; [13],85%
same,pest or weed control at 16 g/ha,[2]; [14],60%
same,pest or weed control at 31 g/ha,[3]; [10],80%
same,pest or weed control at 62 g/ha,[3]; [11],90%
same,pest or weed control at 125 g/ha,[3]; [12],95%
same,pest or weed control at 250 g/ha,[3]; [13],98%
same,pest or weed control at 16 g/ha,[3]; [14],70%
same,pest or weed control at 31 g/ha,[4]; [10],70%
same,pest or weed control at 62 g/ha,[4]; [11],80%
same,pest or weed control at 125 g/ha,[4]; [12],90%
same,pest or weed control at 250 g/ha,[4]; [13],95%
same,pest or weed control at 16 g/ha,[4]; [14],60%
same,pest or weed control at 31 g/ha,[5]; [10],10%
same,pest or weed control at 62 g/ha,[5]; [11],10%
same,pest or weed control at 125 g/ha,[5]; [12],40%
same,pest or weed control at 250 g/ha,[5]; [13],75%
same,pest or weed control at 16 g/ha,[5]; [14],0%
same,pest or weed control at 62 g/ha,[6]; [11],0%
same,pest or weed control at 125 g/ha,[6]; [12],0%
same,pest or weed control at 250 g/ha,[6]; [13],0%
same,pest or weed control at 16 g/ha,[6]; [14],0%
same,"plant response (crop injury) rating, soybean, 0-100 scale at 31 g/ha",[7]; [10],30%
same,"plant response (crop injury) rating, soybean, 0-100 scale at 62 g/ha",[7]; [11],70%
same,"plant response (crop injury) rating, soybean, 0-100 scale at 125 g/ha",[7]; [12],80%
same,"plant response (crop injury) rating, soybean, 0-100 scale at 250 g/ha",[7]; [13],95%
same,"plant response (crop injury) rating, soybean, 0-100 scale at 16 g/ha",[7]; [14],20%
same,pest or weed control at 31 g/ha,[8]; [10],0%
same,pest or weed control at 62 g/ha,[8]; [11],0%
same,pest or weed control at 125 g/ha,[8]; [12],10%
same,pest or weed control at 250 g/ha,[8]; [13],20%
same,pest or weed control at 16 g/ha,[8]; [14],0%
same,pest or weed control at 31 g/ha,[9]; [10],40%
same,pest or weed control at 62 g/ha,[9]; [11],60%
same,pest or weed control at 125 g/ha,[9]; [12],60%
same,pest or weed control at 250 g/ha,[9]; [13],70%
same,pest or weed control at 16 g/ha,[9]; [14],30%
"FC(F)c1cnn(-c2ccccc2Oc2ncc(Cl)cn2)c1 [Compound 80, 5-chloro-2-[2-[4-(difluoromethyl)-1H-pyrazol-1-yl]phenoxy]pyrimidine]","Plant response rating, Ducksalad",[1]; 250 g ai/ha,50
same,"Plant response rating, Ducksalad",[1]; 500 g ai/ha,75
same,"Plant response rating, Ducksalad",[1]; 1000 g ai/ha,80
same,"Plant response rating, Ducksalad",[1]; 2000 g ai/ha,80
N#Cc1cccc(Oc2ncc(Cl)cn2)c1-n1cc(OC(F)F)cn1 [Compound 97],"Plant response rating, Ducksalad",[1]; 31 g ai/ha,0
same,"Plant response rating, Ducksalad",[1]; 62 g ai/ha,40
same,"Plant response rating, Ducksalad",[1]; 125 g ai/ha,75
same,"Plant response rating, Ducksalad",[1]; 250 g ai/ha,80
Fc1cccc(Oc2ncc(Cl)cn2)c1-n1cc(Cl)cn1 [Compound 177],"Plant response rating, Ducksalad",[1]; 31 g ai/ha,20
same,"Plant response rating, Ducksalad",[1]; 62 g ai/ha,60
same,"Plant response rating, Ducksalad",[1]; 125 g ai/ha,85
same,"Plant response rating, Ducksalad",[1]; 250 g ai/ha,95
FC(F)c1cnn(-c2c(Cl)cccc2Oc2ncc(Cl)cn2)c1 [Compound 192],"Plant response rating, Ducksalad",[1]; 31 g ai/ha,0
same,"Plant response rating, Ducksalad",[1]; 62 g ai/ha,0
same,"Plant response rating, Ducksalad",[1]; 125 g ai/ha,70
same,"Plant response rating, Ducksalad",[1]; 250 g ai/ha,75
